In US20150018311A1, “THERAPEUTIC BORON-CONTAINING COMPOUNDS” (priority 2012, published 2015):

Legend:
Test in all cases: Growth in liquid media in presence of test compound
Format in all cases: cell-based
[1] = tested on: Mycobacterium tuberculosis (H37Rv)
[2] = tested on: Streptococcus pyogenes (ATCC 19615)
[3] = tested on: Pseudomonas aeruginosa (ATCC 27853)
[4] = tested on: Staphylococcus aureus (ATCC 25923)
[5] = tested on: Candida albicans (ATCC 90028)
[6] = tested on: Escherichia coli (ATCC 25922)

Row | Compound | Growth in the presence of test compound, M. tuberculosis ([1]; 5 mg/L) | Growth in the presence of test compound, M. tuberculosis ([1]; 50 mg/L) | Growth in the presence of test compound, M. tuberculosis ([1]; 500 mg/L) | Growth in the presence of test compound, S. pyogenes ([2]; 5 mg/L) | Growth in the presence of test compound, S. pyogenes ([2]; 50 mg/L) | Growth in the presence of test compound, S. pyogenes ([2]; 500 mg/L) | Growth in the presence of test compound, P. aeruginosa ([3]; 5 mg/L) | Growth in the presence of test compound, P. aeruginosa ([3]; 50 mg/L) | Growth in the presence of test compound, P. aeruginosa ([3]; 500 mg/L) | Growth in the presence of test compound, S. aureus ([4]; 5 mg/L) | Growth in the presence of test compound, S. aureus ([4]; 50 mg/L) | Growth in the presence of test compound, S. aureus ([4]; 500 mg/L) | Growth in the presence of test compound, C. albicans ([5]; 5 mg/L) | Growth in the presence of test compound, C. albicans ([5]; 50 mg/L) | Growth in the presence of test compound, C. albicans ([5]; 500 mg/L) | Growth in the presence of test compound, E. coli ([6]; 5 mg/L) | Growth in the presence of test compound, E. coli ([6]; 50 mg/L) | Growth in the presence of test compound, E. coli ([6]; 500 mg/L)
1 | CC(NC(=O)C(N)CCCCN)C(Cc1ccccc1)B1OC2CC3CC(C3(C)C)C2(C)O1 (stereo not drawn) [Compound 26] | − | − | − | + | + | − | + | + | − | + | + | − | + | + | − | + | + | −
2 | CC(B1OC2CC3CC(C3(C)C)C2(C)O1)C(Cc1ccccc1)NC(=O)C(N)CCCCN (stereo not drawn) [Compound 30] | + | − | − | + | + | − | + | + | − | + | + | − | + | + | − | + | + | −
3 | CC1(C)C2CC3OB(C(Cc4ccccc4)C(Cc4ccccc4)NC(=O)C(N)CCCCN)OC3(C)C1C2 (stereo not drawn) [Compound 31] | + | − | − | + | + | − | + | + | − | + | + | − | + | + | − | + | + | −
4 | CC(B1OC2CC3CC(C3(C)C)C2(C)O1)C(Cc1ccccc1)NC(=O)C(Cc1ccccc1)NC(=O)C(N)CCCCN (stereo not drawn) [Compound 36] | + | − | − | + | + | − | + | + | − | + | + | − | + | + | ± | + | + | −
5 | NCCCC[C@H](N)C(=O)NC[C@@H](Cc1ccccc1)B(O)O [Compound 38] | − | − | − | + | + | − | + | + | + | + | + | ± | + | + | ± | + | + | ±
6 | CC1(C)C2CC3OB([C@@H](CNC(=O)[C@H](N)Cc4ccccc4)Cc4ccccc4)O[C@]3(C)C1C2 (stereo partly drawn) [Compound 41] | + | ± | ± | + | + | ± | + | + | + | + | + | ± | + | ± | ± | + | + | +
7 | N[C@@H](Cc1ccccc1)C(=O)NC[C@@H](Cc1ccccc1)[B-](F)(F)F.[K+] [Compound 42] | + | − | − | + | + | ± | + | + | + | + | + | + | + | ± | ± | + | + | +
8 | Cl.Cl.NCCCC[C@@H](N)C(=O)NC[C@@H](Cc1ccc(OC(F)(F)F)cc1)B(O)O [Compound 43] | + | + | − | + | + | − | + | + | − | + | + | − | + | + | ± | + | + | −
